The target in data set [1] is T1, human GIP receptor (Homo sapiens, UniProt P48546).
T1 construct: expressed in transfected cells; host or cells: BHK (baby hamster kidney) cells, membrane preparation
T1 sequence (P48546 22-466): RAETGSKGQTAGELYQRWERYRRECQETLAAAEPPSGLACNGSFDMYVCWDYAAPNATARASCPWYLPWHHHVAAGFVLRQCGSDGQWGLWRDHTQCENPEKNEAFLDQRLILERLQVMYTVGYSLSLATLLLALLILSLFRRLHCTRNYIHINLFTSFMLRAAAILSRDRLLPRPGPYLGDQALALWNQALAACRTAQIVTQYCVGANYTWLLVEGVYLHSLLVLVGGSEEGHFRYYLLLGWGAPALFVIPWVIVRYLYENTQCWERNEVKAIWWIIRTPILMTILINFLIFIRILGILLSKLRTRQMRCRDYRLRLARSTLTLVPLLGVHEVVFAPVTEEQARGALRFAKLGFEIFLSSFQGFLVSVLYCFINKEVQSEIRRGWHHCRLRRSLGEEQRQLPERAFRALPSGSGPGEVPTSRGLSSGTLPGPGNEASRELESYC
In words: GIP Binding Assay. Put shortly: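 Membranes from BHK cells transfected with human GIP receptor; competition binding in HEPES pH 7.5 buffer with Ca2+/Mg2+, compounds added in DMSO, WGA SPA beads. Incubated 3.5 h shaking, settled 8-48 h, then scintillation counted; non-specific binding defined with 500 nM GIP.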

In data set [2] the target is T2, human glucagon receptor (Homo sapiens, UniProt P47871).
T2 construct: expressed in transfected cells; host or cells: BHK (baby hamster kidney) cells, membrane preparation
In words: Glucagon Binding Assay (II). To be noted: membranes of BHK cells transfected with human glucagon receptor, 125I-glucagon, SPA; read-out: Glu Bd Assay (II) IC50. An outline of the steps: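 Membranes from BHK cells transfected with the human glucagon receptor were incubated with test compound (in DMSO) in HEPES buffer pH 7.5 with Ca2+/Mg2+ and WGA beads for 4 h, then settled 8–48 h before scintillation counting. Non-specific binding was defined with 500 nM glucagon.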

[3] abbreviates: membranes of BHK cells transfected with human GIP receptor, 125I-GIP, SPA, read-out: GIP Bd Assay IC50.

Like-named read-outs stand apart in the source and are kept apart here.

By IC50 is commonly meant the concentration at which inhibition is half-maximal. The term melting point denotes the temperature of the solid-liquid transition.

T2 sequence (P47871 26-477): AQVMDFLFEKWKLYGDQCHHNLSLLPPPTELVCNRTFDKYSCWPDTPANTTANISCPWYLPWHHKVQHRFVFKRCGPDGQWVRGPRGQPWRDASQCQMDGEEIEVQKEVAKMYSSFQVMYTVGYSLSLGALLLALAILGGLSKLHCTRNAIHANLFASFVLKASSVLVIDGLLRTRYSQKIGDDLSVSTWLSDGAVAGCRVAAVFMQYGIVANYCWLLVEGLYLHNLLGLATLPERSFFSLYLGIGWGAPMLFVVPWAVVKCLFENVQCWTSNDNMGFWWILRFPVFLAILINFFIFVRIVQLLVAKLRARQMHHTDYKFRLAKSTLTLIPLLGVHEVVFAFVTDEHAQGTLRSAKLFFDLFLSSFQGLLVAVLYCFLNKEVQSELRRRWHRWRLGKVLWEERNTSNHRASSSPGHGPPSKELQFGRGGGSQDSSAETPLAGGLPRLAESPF

For `CC(C)(C)[C@H]1CC[C@H](N(Cc2ccc(C(=O)NC[C@@H](O)C(=O)O)cc2)C(=O)Nc2cc(C(F)(F)F)cc(C(F)(F)F)c2)CC1` [Example 14, (R)-Trans-3-{4-[3-(3,5-bis(trifluoromethyl)phenyl)-1-(4-tert-butylcyclohexyl)ureidomethyl]benzoylamino}-2-hydroxypropionic acid], the melting point was 184 to 187 °C. The concentration for half-maximal inhibition (IC50) in data set [1] (setting [3]) came to 274 nM. Further, in data set [2], the half-inhibitory concentration (IC50) was determined as 19 nM.
Molecule `CC(C)(C)[C@H]1CC[C@H](N(Cc2ccc(C(=O)NC[C@H](O)C(=O)O)cc2)C(=O)Nc2cc(C(F)(F)F)cc(C(F)(F)F)c2)CC1` [Example 13, (S)-Trans-3-{4-[3-(3,5-Bis(trifluoromethyl)phenyl)-1-(4-tert-butylcyclohexyl)ureidomethyl]benzoylamino}-2-hydroxypropionic acid] displayed a melting point of 185 to 187 °C. For the same molecule, in data set [1] (setting [3]), the IC50 is 700 nM. For the same molecule, the IC50 in data set [2] came out at 228 nM.
Consider `CC(C)(C)C1CC=C(c2ccc(N(Cc3ccc(C(=O)NC[C@@H](O)C(=O)O)cc3)C(=O)Nc3cc(Cl)cc(Cl)c3)cc2)CC1` (stereo partly drawn) [Example 33, 3-{4-[1-[4-(4-tert-Butylcyclohex-1-enyl)phenyl]-3-(3,5-dichlorophenyl)ureidomethyl]benzoyl-amino}-2-(R)-hydroxypropionic Acid], for which the melting point was in the range of 151 to 155 °C. Besides, in data set [1] (setting [3]), the IC50 was found to be 189 nM. Also, the half-inhibitory concentration (IC50) in data set [2] came to 12 nM.
With `Cc1cc(NC(=O)N(Cc2ccc(C(=O)NC[C@@H](O)C(=O)O)cc2)[C@H]2CC[C@H](C(C)(C)C)CC2)cc(C(F)(F)F)c1` [Example 15, Trans-(R)-3-{4-[3-(3-methyl-5-trifluoromethylphenyl)-1-(4-tert-butylcyclohexyl)ureidomethyl]benzoylamino}-2-hydroxypropionic acid], the half-inhibitory concentration (IC50) in data set [1] (setting [3]) worked out at 395 nM; in data set [2] it was 35 nM.
With `O=C(NC[C@@H](O)C(=O)O)c1ccc(CN(C(=O)Cc2cccc(Br)c2)c2ccc(C3CCCCC3)cc2)cc1` [Example 69, (R)-3-(4-{[[(3-Bromophenyl)acetyl]-(4-cyclohexylphenyl)amino]methyl}benzoylamino)-2-hydroxypropionic acid], the values for the IC50 in data set [1] (setting [3]) and in data set [2] were more than 3000 nM and 430 nM, respectively.
The matching figures for `CC(C)(C)c1ccc(N(Cc2ccc(C(=O)NCC(O)C(=O)O)cc2)C(=O)Nc2ccc(OC(F)(F)F)cc2)cc1` (racemic) [Example 16, (RS)-3-{4-[1-(4-tert-Butylphenyl)-3-(4-trifluoromethoxyphenyl)ureidomethyl]benzoylamino}-2-hydroxypropionic acid]: 205 nM and 61 nM.
On to `O=C(NC[C@@H](O)C(=O)O)c1ccc(CN(C(=O)Nc2ccc(Cl)c(Cl)c2)c2ccc(C3CCCCC3)cc2)cc1` [Example 42, (R)-3-{4-[1-(4-Cyclohexylphenyl)-3-(3,4-dichlorophenyl)ureidomethyl]benzoylamino}-2-hydroxypropionic acid], for which the half-inhibitory concentration (IC50) in data set [1] (setting [3]) was 340 nM; in data set [2], 41 nM.
For the molecule `O=C(NC[C@@H](O)C(=O)O)c1ccc(CN(C(=O)Cc2cc(C(F)(F)F)cc(C(F)(F)F)c2)c2ccc(C3CCCCC3)cc2)cc1` [Example 66, (R)-3-(4-{([(3,5-Bis(trifluoromethyl)phenyl)acetyl]-(4-cyclohexylphenyl)amino)methyl}benzoylamino)-2-hydroxypropionic acid], the half-inhibitory concentration (IC50) was more than 3000 nM in data set [1] (setting [3]) and 325 nM in data set [2].
In the case of `O=C(NC[C@@H](O)C(=O)O)c1ccc(CN(CC(c2ccccc2)c2ccccc2)C(=O)c2cc3cc(OC(F)(F)F)ccc3[nH]2)cc1` [Example 62, (R)-3-(4-{[(2,2-Diphenylethyl)-(5-trifluoromethoxy-1H-indole-2-carbonyl)amino]methyl}-benzoylamino)-2-hydroxypropionic acid], the IC50 in data set [1] (setting [3]) is more than 3000 nM; in data set [2], 757 nM.
For the molecule `O=C(NC[C@@H](O)C(=O)O)c1ccc(CN(C(=O)Nc2cc(Br)cc(C(F)(F)F)c2)c2ccc(C3CCCCC3)cc2)cc1` [Example 12, (R)-3-{4-[3-(3-Bromo-5-trifluoromethylphenyl)-1-(4-cyclohexylphenyl)ureidomethyl]benzoylamino}-2-hydroxypropionic acid], the IC50 in data set [1] (setting [3]) is 204 nM; in data set [2], 10 nM.
For `CC(C)(C)C1CCC(N(Cc2ccc(C(=O)NC[C@@H](O)C(=O)O)cc2)C(=O)Cc2ccc(OC(F)(F)F)cc2)CC1` (stereo partly drawn) [Example 56, (R)-3-[4-({(4-tert-Butylcyclohexyl)-[2-(4-trifluoromethoxyphenyl)acetyl]amino}methyl)benzoylamino]-2-hydroxypropionic acid], the IC50 in data set [1] (setting [3]) stood at 1370 nM; in data set [2], 228 nM.
`O=C(NC[C@@H](O)C(=O)O)c1ccc(CN(C(=O)Nc2ccc3c(c2)C(F)(F)OC(F)(F)O3)c2ccc(C3CCCCC3)cc2)cc1` [Example 43, (R)-3-{4-[1-(4-Cyclohexylphenyl)-3-(2,2,4,4-tetrafluoro-4H-benzo[1,3]dioxin-6-yl)ureidomethyl]benzoylamino}-2-hydroxypropionic acid]: the figures for the 50% inhibitory concentration (IC50) in data set [1] (setting [3]) and in data set [2] were 226 nM and 17 nM, respectively.
Regarding `O=C(NC[C@@H](O)C(=O)O)c1ccc(CN(C(=O)Nc2cccc(Br)c2)c2ccc(C3CCCCC3)cc2)cc1` [Example 3, (R)-3-{4-[3-(3-Bromophenyl)-1-(4-cyclohexylphenyl)ureidomethyl]benzoylamino}-2-hydroxypropionic acid], the values for the IC50 in data set [1] (setting [3]) and in data set [2] were 653 nM and 18 nM, respectively.
In the case of `O=C(NC[C@@H](O)C(=O)O)c1ccc(CN(C(=O)Cc2ccc(OC(F)(F)F)cc2)c2ccc(C3CCCCC3)cc2)cc1` [Example 63, (R)-3-[4-({(4-Cyclohexylphenyl)-[(4-trifluoromethoxyphenyl)acetyl]amino}methyl)benzoylamino]-2-hydroxypropionic acid], the values for the half-inhibitory concentration (IC50) in data set [1] (setting [3]) and in data set [2] were more than 3000 nM and 336 nM, respectively.
The like results for `CC(C)(C)c1ccc(N(Cc2ccc(C(=O)NC[C@@H](O)C(=O)O)cc2)C(=O)Nc2ccc3c(c2)C(F)(F)OC(F)(F)O3)cc1` [Example 44, (R)-3-{4-[1-(4-tert-Butylphenyl)-3-(2,2,4,4-tetrafluoro-4H-benzo[1,3]dioxin-6-yl)ureidomethyl]benzoylamino}-2-hydroxypropionic acid] were, in that order, 291 nM and 39 nM.
In the case of `O=C(NCC(O)C(=O)O)c1ccc(CN(C(=O)Nc2cc(Cl)cc(Cl)c2)c2ccc(C3=CCCCC3)cc2)cc1` (racemic) [Example 17, (RS)-3-{4-[1-(4-Cyclohex-1-enylphenyl)-3-(3,5-dichlorophenyl)ureidomethyl]benzoylamino}-2-hydroxypropionic acid], the IC50 in data set [1] was 448 nM; in data set [2], 22 nM.
Regarding `O=C(NC[C@H](O)C(=O)O)c1ccc(CN(C(=O)Nc2cc(Cl)cc(Cl)c2)c2ccc(C3=CCCCC3)cc2)cc1` [Example 18, (S)-3-{4-[1-(4-Cyclohex-1-enylphenyl)-3-(3,5-dichlorophenyl)ureidomethyl]benzoylamino}-2-hydroxypropionic acid], the IC50 in data set [1] (setting [3]) was more than 1500 nM; in data set [2], 177 nM.
Regarding `CC(C)c1ccc(NC(=O)N(Cc2ccc(C(=O)NC[C@@H](O)C(=O)O)cc2)c2ccc(C3CCCCC3)cc2)cc1` [Example 51, (R)-3-{4-[1-(4-Cyclohexylphenyl)-3-(4-isopropylphenyl)ureidomethyl]benzoylamino}-2-hydroxypropionic acid], the IC50 in data set [1] (setting [3]) was 831 nM; in data set [2], 88 nM.
For the molecule `CS(=O)(=O)c1cc(NC(=O)N(Cc2ccc(C(=O)NC[C@@H](O)C(=O)O)cc2)c2ccc(C3=CCCCC3)cc2)ccc1OC(F)(F)F` [Example 25, (R)-3-{4-[1-(4-Cyclohexen-1-ylphenyl)-3-(3-methanesulfonyl-4-trifluoromethoxyphenyl)ureidomethyl]benzoylamino}-2-hydroxypropionic acid], the IC50 stood at 465 nM in data set [1] (setting [3]) and 10 nM in data set [2].
As for `N#Cc1ccc(NC(=O)N(Cc2ccc(C(=O)NC[C@@H](O)C(=O)O)cc2)c2ccc(C3CCCCC3)cc2)cc1C(F)(F)F` [Example 37, (R)-3-{4-[3-(4-Cyano-3-trifluoromethylphenyl)-1-(4-cyclohexylphenyl)ureidomethyl]benzoyl-amino}-2-hydroxypropionic Acid], the figures for the IC50 in data set [1] (setting [3]) and in data set [2] were 520 nM and 19 nM, respectively.

Values taken from patent publication US6953812B2, “Glucagon antagonists/inverse agonists” (Novo Nordisk, Inc., priority 2000, dated 2005).
